Experimental findings from PubChem BioAssay (NCI) are described below.

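Assay format: 96-well plates, 48-hour exposure. Abbreviation: GI50, concentration required for 50% inhibition of growth. TGI is the concentration that stops growth completely.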 Some results are limits rather than exact numbers.

Common to all, as to test: NCI tumour cell line growth inhibition, 48 h
In assay [1] the test system is K-562 leukemia.
The test system of assay [2] is NCI-H460 lung.
For assay [3], the system named is NCI-H522 lung.
Assay [4] has as its system SW-620 colon.
For assay [5], the system named is OVCAR-4 ovarian.
Assay [6] relates to HS 578T breast.
In assay [7] the test system is SR leukemia.
The test system of assay [8] is SF-539 CNS.
The test system of assay [9] is DU-145 prostate.
Assay [10] has as its system HCT-15 colon.
Assay [11] deals with SF-295 CNS.
Assay [12] concerns SK-MEL-28 melanoma.
The test system of assay [13] is SNB-19 CNS.
In assay [14] the test system is UACC-257 melanoma.
Assay [15] relates to HCC-2998 colon.
The test system of assay [16] is PC-3 prostate.
For assay [17], the system named is MCF7 breast.

Consider `CNC(=S)N/N=C(\C)c1ccc(OC)cc1O`, for which the TGI was above 100 µM in [1]; above 100 µM in assay [2]; above 100 µM in assay [3]; above 100 µM in assay [4]; 94.2 µM in assay [5]; above 100 µM in [6]. For the same molecule, the TGI in assay [7], in assay [8], in [9], in assay [10], in [11] and in assay [12] was above 100 µM throughout. Also, the TGI in [13], in [14], in assay [15] and in assay [16] was above 100 µM each time.

On to `CNNC1=NS(=O)(=O)c2cc(C(=O)OC)c(Cl)cc2S1`, for which the TGI in assay [1], in assay [17], in [2], in assay [3], in assay [4] and in assay [5] was above 10 µM each time. Besides, the TGI in assay [6], in assay [8], in assay [9], in assay [10], in [11] and in [12] was above 10 µM each time. Moreover, the TGI in assay [13], in assay [14], in [15] and in assay [16] was above 10 µM throughout.

`COC(=O)c1ccccc1C1CN=NC12Cc1c(C)c3c(c(C)c1C2=O)CCC3` (stereo not drawn): the TGI in assay [1], in assay [17], in assay [2], in assay [3], in [4] and in assay [5] was above 100 µM in each case. For the same molecule, the TGI in assay [6], in assay [8], in [9], in [10], in [11] and in [12] was above 100 µM in each case. In addition, the TGI in assay [13], in assay [14], in assay [15] and in [16] was above 100 µM throughout.

In the case of `O=c1[nH]ncc2[nH]c3c(c12)CCCc1ccccc1-3`, the TGI in assay [1], in assay [17], in assay [2], in [3], in assay [4] and in assay [5] was above 100 µM each time. The TGI in [6] was 45.8 µM; in assay [8], above 100 µM; in [9], above 100 µM; in [10], above 100 µM; in [11], above 100 µM; in [13] it was above 100 µM. Further, the TGI in assay [14] is above 100 µM; in assay [15], 61.4 µM; in assay [16], above 100 µM.

For the molecule `COc1cccc(NC(=O)c2c(SC)n[nH]c2N)c1`, the TGI in assay [1], in [17], in assay [2], in assay [3], in assay [4] and in assay [5] was above 100 µM each time. The TGI in assay [6], in assay [8], in assay [10], in assay [11], in [12] and in [13] was above 100 µM in each case. Moreover, the TGI in assay [14], in [15] and in [16] was above 100 µM throughout.

Turning to `O=c1oc2ccccc2c(O)c1C(c1ccc([N+](=O)[O-])cc1)c1c(O)c2ccccc2oc1=O`, the TGI in [2], in assay [3], in [4], in assay [5], in assay [6] and in [9] was above 100 µM in each case. The TGI in [10], in assay [12], in [13], in [14] and in assay [16] was above 100 µM throughout.

For the molecule `Cc1ccccc1N=Nc1ccc(N=Nc2c(O)ccc3cc(S(=O)(=O)O)cc(S(=O)(=O)O)c23)c(C)c1`, the TGI in [1], in [17], in assay [2], in assay [3], in [4] and in assay [5] was above 100 µM in each case. For the same molecule, the TGI in [6], in [7], in assay [8], in assay [10], in [11] and in assay [12] was above 100 µM throughout. Further, the TGI in assay [13], in assay [14], in [15] and in assay [16] was above 100 µM in each case.

For `O=C1CC(CC(O)C(O)CO)CC(=O)N1` (stereo not drawn), the TGI in [1], in assay [17], in assay [2], in assay [3], in assay [4] and in assay [6] was above 100 µM in each case. Besides, the TGI in assay [8], in assay [9], in assay [10], in assay [11], in assay [12] and in assay [13] was above 100 µM each time. The TGI in [14], in assay [15] and in assay [16] was above 100 µM each time.

Turning to `Cc1c2ccccc2nc2[nH]c3ccncc3c12`, the TGI was above 100 µM in [1]; 39.8 µM in assay [2]; above 100 µM in assay [3]; above 100 µM in assay [4]; above 100 µM in assay [5]; above 100 µM in assay [6]. Besides, the TGI in assay [7], in [8], in [9], in assay [10], in assay [11] and in [12] was above 100 µM throughout. The TGI in [13], in assay [14] and in [16] was above 100 µM in each case.

For `N[C@H]1CCc2c1nc1c(c2-c2ccccc2)CC[C@@H]1N`, the TGI was 26.6 µM in assay [1]; 64.3 µM in assay [17]; above 100 µM in [2]; 30.1 µM in [3]; 27.5 µM in assay [4]; above 100 µM in assay [5]. The TGI in [7] was above 100 µM; in [8], 31.1 µM; in assay [9] it was above 100 µM; in assay [10] it was above 100 µM; in assay [11] it was 45.5 µM; in [13], above 100 µM. Further, the figures for the TGI in assay [15] and in assay [16] were 49.2 µM and 29.5 µM, respectively.

For the molecule `COc1cccc2c1[C@H](OC)[C@]13O[C@@]1(C2=O)[C@H](O)[C@H](C)[C@@](O)(C(=O)[C@@H]1O[C@H]1C)[C@@H]3O`, the TGI was above 100 µM in [1]; 4.86 µM in assay [17]; 0.617 µM in assay [2]; 0.403 µM in [3]; 0.555 µM in assay [5]; 0.618 µM in assay [6]. For the same molecule, the TGI in assay [8] is 0.975 µM; in assay [10], 2.07 µM; in assay [11], 0.558 µM; in assay [12], 0.654 µM; in assay [14] it was 0.527 µM. In addition, in [2], the GI50 is 0.211 µM.

Regarding `CC1=CC(=O)c2cccc(O)c2C1=O`, the TGI was 20 µM in assay [1]; 18.9 µM in assay [2]; 5.42 µM in assay [3]; 4.08 µM in assay [4]; 3.39 µM in [5]; 7.13 µM in [6]. Besides, the TGI is above 21.9 µM in assay [7]; 12.3 µM in [8]; 20.6 µM in assay [9]; 3.04 µM in assay [10]; 27.7 µM in assay [11]; 7.81 µM in [12]. Further, the TGI was found to be 17.4 µM in assay [13], 3.36 µM in [14], 16.8 µM in assay [15] and 5.7 µM in [16].

With `CCCC/C=C1\CCC(CN2CCOCC2)C1=O` (stereo not drawn), the TGI in assay [1] was 5.82 µM; in [17], 4.93 µM; in [2], 38.2 µM; in assay [3], 2.17 µM; in assay [4] it was 5.13 µM; in assay [5], 36.1 µM. For the same molecule, the TGI is 5.23 µM in [7]; 17.5 µM in assay [8]; 32.8 µM in [9]; 9.3 µM in assay [10]; 29.8 µM in [11]; 7.97 µM in assay [12]. Besides, the TGI was found to be 29.6 µM in assay [13], 13.5 µM in assay [14], 22.1 µM in assay [15] and 26.2 µM in [16]. Further, the GI50 in assay [10] is 3.05 µM.

For the molecule `Oc1ccc2ccccc2c1N=Nc1ccc(N=Nc2ccccc2)cc1`, the TGI in assay [1] is above 100 µM; in assay [3] it was above 100 µM; in assay [4], above 100 µM; in assay [5], above 100 µM; in [6] it was above 100 µM; in assay [7] it was 88.2 µM. The TGI in [9], in assay [10], in assay [11], in [12], in [13] and in assay [14] was above 100 µM in each case. The TGI in assay [16] was above 100 µM.

Regarding `C1CSCCSS[C@@H]2CCCCC2SC1` (stereo partly drawn), the TGI in assay [1], in assay [17], in [2], in [3], in [4] and in [5] was above 100 µM in each case. The TGI in [7], in assay [8], in assay [9], in [10], in assay [11] and in [12] was above 100 µM in each case. In addition, the TGI in [13], in assay [14], in [15] and in assay [16] was above 100 µM each time.

Regarding `N#CC1(C#N)C(c2ccccc2)NC23CCCCC2C1(C#N)C(=O)N3` (stereo not drawn), the TGI in [1], in [17], in assay [2], in assay [3], in assay [4] and in assay [5] was above 100 µM in each case. In addition, the TGI in assay [7], in [8], in assay [9], in [10], in [11] and in assay [12] was above 100 µM throughout. Also, the TGI in assay [13], in assay [14], in assay [15] and in assay [16] was above 100 µM in each case.

On to `Fc1ccc(C(OCCN2CC3CC2CN3CCCc2ccccc2)c2ccc(F)cc2)cc1` (stereo not drawn), for which the TGI in assay [17] was determined as 18.8 µM; in assay [2], 17.3 µM; in assay [3], 21.2 µM; in assay [4], 24.1 µM; in assay [5] it was 25.8 µM; in [6], 25.8 µM. Also, the TGI stood at 5.12 µM in assay [8]; 24.3 µM in assay [9]; 16.8 µM in assay [10]; 20.9 µM in [11]; 9.09 µM in assay [12]; 27.3 µM in [13]. Moreover, the figures for the TGI in assay [14], in [15] and in assay [16] were 12.7 µM, 5.7 µM and 17.7 µM, respectively.

As to `c1ccc(SCCP(CCP(c2ccccc2)c2ccccc2)c2ccccc2)cc1` (stereo not drawn), the TGI in [1] is above 100 µM; in assay [17], above 100 µM; in assay [2] it was above 100 µM; in assay [4] it was above 100 µM; in assay [5] it was 97.1 µM; in [6], above 100 µM. Besides, the TGI in [8], in assay [9], in [10], in assay [11], in assay [12] and in [13] was above 100 µM each time. Also, the TGI in [14] is above 74.7 µM; in [15], above 100 µM.
